Test results reported in publication PMC8245786, “Comparative Studies on Multi-Component Pharmacokinetics of Polygonum multiflorum Thunb Extract After Oral Administration in Different Rat Models” (Frontiers in Pharmacology, 2021).
Read-outs that look alike come from different tables or passages of the source.

Legend:
[1] = Pharmacokinetics of AE-PM components and their phase II metabolites in rat plasma after single oral administration (UHPLC-MS/MS, with and without sulfatase hydrolysis); details: for t1/2z / AUC(0-inf) / CL/F / Cmax / MRT inf / Tmax / Vd/F / half-life / Conversion into phase II metabolites: plasma; for CL/F: CLz/F; for MRT inf: MRT (0-∞); for Vd/F: Vz/F; for half-life: t1/2z; for Conversion into phase II metabolites: rats
Description: (§1) To explore the pharmacokinetic properties of PM following intragastric administration in rats, a rapid and sensitive method involving the use of UHPLC-MS/MS (Agilent 6460 series, Agilent Technologies, Santa Clara, CA, United States) was developed and validated for the simultaneous quantification of nine active components in rat plasma. The quantification was conducted in ESI negative ionization mode, and mass spectrometry conditions were set up as follows: capillary voltage of 3500 V; gas flow at 12 L/min; nebulizer of 40 psi; the gas temperature of 350°C; and delta EMV (−) of 400. A 10 µl extraction sample was injected into the column (Agilent SB-C18 column, 2.1 mm × 50 mm, 1.8 mm) and eluted at 0.4 ml/min with a gradient elution of water (with 0.1% v/v formic acid) (A) and acetonitrile (B) (0–1.5 min, 20–30% B; 1.5–3.5 min, 30–50% B; 3.five to four min, 50–55%B; 4–6.5 min, 55–85% B; 6.5–6.6 min, 85–20% B and re-equilibration for 3 min).
(§2) A 50 µl aliquot of blood plasma sample was placed in a centrifuge tube with 50 µl of puerarin (internal standard, IS) solution (1,000 ng/ml), followed by 150 µl methanol, which was mixed for 5 min. Then, the mixture was centrifuged for 10 min at 15,000 rpm (4°C), the supernatant was transferred to a clean centrifuge tube and dried with nitrogen gas at room temperature. The residue was resuspended in 100 µl of methanol, then centrifuged at 15,000 rpm (4°C, 10 min), and 10 µl of the supernatant was analyzed by UHPLC-MS/MS.
(§3) Additional plasma samples (50 µl) were enzymatically hydrolyzed with 50 µl of enzyme solution (65.86 mg of sulfatase, dissolved in 2 ml of sodium acetate buffer, pH 5.0) for phase II metabolite quantification, in accordance with our previous study ([Ding et al., 2012]; [Yi et al., 2018]). After being vortex mixed for 5 min, the mixture was incubated at 37°C for 30 min and returned to room temperature. Subsequently, the samples were processed as described above.
(§4) The remaining 21 rats of the three groups were treated with a single oral dose of AE-PM (50.4 g PM/kg). […] Blood was collected in heparinized tubes at 5, 15, 30, 45, 60, 120, 240, 360, 480, 720, 1,440, 2,880, and 4,320 min after administration. The blood samples were centrifuged at 5,000 rpm (4°C) for 7 min, and the supernatant plasma was harvested.
(§5) All data were presented as mean ± standard deviation (SD). A one-way analysis of variance (ANOVA) was used to compare the data between three groups. The differences were considered to be statistically significant when p < 0.05 and highly significant when the p-value was <0.01 or p < 0.001. Spearman rank correlation coefficient, calculated by bivariate correlation analysis was used to evaluate the correlation between AUC values and expression levels of metabolic enzyme and transporters. All statistical analyses were performed with the SPSS Statistics system (SPSS vision 21.0). Pharmacokinetic data analyses were performed using DAS 2.1.1 software (Mathematical Pharmacology Professional Committee of China, Shanghai, China).

[2] = rat, in vivo, po
Description: as §1, §2, §3, §4, §5

[3] = in vivo; details: rat, po, 50 g/kg; for MRT inf: MRT (0-∞); for MRT inf / Tmax: oral AE-PM 50 g/kg, plasma, n = 6
Description: as §1, §2, §3, §4, §5

[4] = CCl4 group rats, oral AE-PM 50 g/kg, n = 6
[5] = rat, po, 50 g/kg, ANIT group rats, oral AE-PM 50 g/kg, n = 6
[6] = rat, po, 50 g/kg, CCl4 group rats, oral AE-PM 50 g/kg, n = 6
[7] = rat, po, 50 g/kg, Normal group rats, oral AE-PM 50 g/kg, n = 6
[8] = rat, po, 50 g/kg, Tmax, ANIT group rats, oral AE-PM 50 g/kg, n = 6
[9] = rat, po, 50 g/kg, Tmax, CCl4 group rats, oral AE-PM 50 g/kg, n = 6
[10] = rat, po, 50 g/kg, Tmax, Normal group rats, oral AE-PM 50 g/kg, n = 6
[11] = rat, po, 50.4 g PM/kg, Tmax, different groups (normal, ANIT, CCl4), oral AE-PM

SMILES | AUC(0-inf) [1, 5] [ng·h/mL] | AUC(0-inf) [1, 6] [ng·h/mL] | AUC(0-inf) [1, 7] [ng·h/mL] | CL/F [1, 5] [mL/min/kg] | CL/F [1, 6] [mL/min/kg] | CL/F [1, 7] [mL/min/kg] | Cmax [1, 5] [ng/mL] | Cmax [1, 6] [ng/mL] | Cmax [1, 7] [ng/mL] | MRT inf [1, 5] [h] | MRT inf [1, 6] [h] | MRT inf [1, 7] [h] | Tmax [1, 8] [min] | Tmax [1, 9] [min] | Tmax [1, 10] [min] | Vd/F [1, 5] [L/kg] | Vd/F [1, 6] [L/kg] | Vd/F [1, 7] [L/kg] | half-life [1, 5] [min] | half-life [1, 7] [min] | also measured
O=C1c2cccc(O)c2C(=O)c2c(O)cc(CO)cc21 [Aloe-emodin, aloe-emodin] | 41700 | 6620 | 3560 | 7.98 | 50.4 | 93.6 | 1570 | 2600 | 1270 | 198 ± 3.17 | 6.47 ± 0.422 | 14 ± 1.42 | 15 ± 1.92 | 15 ± 3.12 | 10 ± 3.06 | 96.7 ± 8.35 | 15 ± 1.2 | 28.7 ± 1.55 | 8390 ± 498 | 213 ± 11.1 | t1/2z [1, 4]: 3.448 ± 0.177 h; Tmax [1, 11]: < 30 min
Oc1cc(O)c2c(c1)O[C@H](c1ccc(O)c(O)c1)[C@@H](O)C2 [Catechin, catechin] | 11600 | 1500 | 12600 | 28.8 | 222 | 26.4 | 84.5 ± 8.85 | 453 ± 8.94 | 251 ± 11.8 | 253 ± 3.75 | 11.2 ± 1.23 | 146 ± 11.3 | 60 ± 44.5 | 30 ± 2.45 | 15 ± 1.4 | 442 ± 16.9 | 72.2 ± 12.6 | 237 ± 18.3 | 10640 ± 65.6 | 6220 ± 897 | half-life [1, 6]: 225 ± 49 min; Conversion into phase II metabolites ([1]; oral AE-PM): partially converted
Cc1cc(O[C@@H]2O[C@H](CO)[C@@H](O)[C@H](O)[C@H]2O)c2c(c1)C(=O)c1cc(O)cc(O)c1C2=O [E-glu, emodin-8-O-β-D-glucoside] | 1720 ± 170 | 14200 | 1880 ± 538 | 193 | 23.5 | 177 | 633 ± 50 | 5920 | 821 ± 85 | 2.81 ± 0.872 | 2.44 ± 1.17 | 3.88 ± 1.52 | 60 ± 14.9 | 60 ± 17.3 | 15 ± 1.81 | 78.3 ± 4.4 | 8.13 ± 1.75 | 60.2 ± 9.45 | 281 ± 66.1 | 235 ± 13.1 | Decrease of AUC (0-∞) compared with the normal group ([1]; ANIT model rats, oral AE-PM): 8.25%; Decrease of Cmax compared with the normal group ([1]; ANIT model rats, oral AE-PM): 22.98%; Increase of AUC (0-∞) compared with the normal group ([1]; CCl4 model rats, oral AE-PM): 655.90%; Increase of Cmax compared with the normal group ([1]; CCl4 model rats, oral AE-PM): 620.15%; half-life [1, 6]: 240 ± 83.9 min
Cc1cc(O)c2c(c1)C(=O)c1cc(O)cc(O)c1C2=O [Emodin, emodin] | 1500 | 5970 | 3400 | 223 | 55.9 | 98.1 | 607 ± 29.9 | 6430 | 4100 | 22.8 ± 5.28 | 1.23 ± 0.681 | 6.09 ± 1.83 |  |  | 10 ± 3.54 | 75.5 ± 8.86 | 68.1 ± 6.03 | 31.3 ± 3.25 | 235 ± 49.3 |  | Decrease of AUC (0-∞) compared with the normal group [2]: 55.98%; Decrease of Cmax compared with the normal group [2]: 85.18%; Increase of AUC (0-∞) compared with the normal group [2]: 75.69%; Increase of Cmax compared with the normal group [2]: 57.02%; Tmax [1, 4]: 15 ± 3.95 min; t1/2z [1, 4]: 3.654 ± 0.267 h; t1/2z ([1]; Normal group rats, oral AE-PM 50 g/kg, n = 6): 3.681 ± 1.075 h; Tmax [1, 11]: < 30 min; Conversion into phase II metabolites ([1]; oral AE-PM): partially converted
O=C(O)c1cc(O)c(O)c(O)c1 [Gallic acid, gallic acid] |  |  |  |  |  |  |  |  |  |  |  |  |  |  |  |  |  |  |  |  | MRT inf ([3]; ANIT group rats): 55.7 ± 4.22 h; MRT inf ([3]; CCl4 group rats): 3.06 ± 0.12 h; MRT inf ([3]; Normal group rats): 12.8 ± 1.02 h; Tmax ([3]; ANIT group rats): 45 ± 1.39 min; Tmax ([3]; CCl4 group rats): 15 ± 3.85 min; Tmax ([3]; Normal group rats): 15 ± 4.37 min; Vd/F ([3]; Vz/F): 205 ± 2.2 L/kg
COc1cc(O)c2c(c1)C(=O)c1cc(C)cc(O[C@@H]3O[C@H](CO)[C@@H](O)[C@H](O)[C@H]3O)c1C2=O [P-glu, physcion-8-O-β-D-glucoside] | 7050 | 1450 | 2270 | 47.3 | 230 | 147 | 223 ± 13.2 | 211 ± 3.04 | 148 ± 8.95 | 18.8 ± 3.36 | 7.48 ± 1.42 | 15.9 ± 2.36 | 60 ± 13.9 | 15 ± 3.97 | 45 ± 2.94 | 13.2 ± 1.86 | 81.3 ± 5.01 | 143 ± 11.1 | 193 ± 28.4 | 675 ± 111 | half-life [1, 6]: 245 ± 27.2 min
COc1cc(O)c2c(c1)C(=O)c1cc(C)cc(O)c1C2=O [Physcion, physcion] | 14000 | 36000 | 27800 | 23.9 | 9.27 | 12 | 1510 | 5840 | 2140 | 37.6 ± 2.27 | 10 ± 1.14 | 26.7 ± 1.52 | 45 ± 1.43 | 60 ± 4.05 | 30 ± 5.64 | 59.8 ± 3.41 | 7.05 ± 1.11 | 17.6 ± 2.41 | 1740 ± 90.1 | 1020 ± 112 | Decrease of AUC (0-∞) compared with the normal group ([1]; ANIT model rats, oral AE-PM): 49.77%; Decrease of Cmax compared with the normal group ([1]; ANIT model rats, oral AE-PM): 29.48%; Increase of AUC (0-∞) compared with the normal group ([1]; CCl4 model rats, oral AE-PM): 29.24%; Increase of Cmax compared with the normal group ([1]; CCl4 model rats, oral AE-PM): 173.72%; Levels of glucuronidation and sulfation conjugates in plasma ([1]; oral AE-PM, sulfatase hydrolysis): too low to allow pharmacokinetic analysis; half-life [1, 6]: 527 ± 96.2 min
OC[C@H]1O[C@@H](Oc2c(O)cc(O)cc2/C=C/c2ccc(O)cc2)[C@H](O)[C@@H](O)[C@@H]1O [TSG, 2,3,5,4'-tetrahydroxystilbene-2-O-β-D-glucoside] | 341000 | 116000 | 12900 | 0.983 | 2.87 | 25.9 | 99300 | 50600 | 15000 | 6.03 ± 1.93 | 3.4 ± 1.04 | 4.54 ± 1.23 | 30 ± 1.67 | 45 ± 8.16 | 15 ± 1.76 | 0.221 ± 0.0206 | 0.698 ± 0.073 | 4.37 ± 0.711 | 156 ± 36.7 | 117 ± 48.4 | Increase of AUC (0-∞) compared with the normal group ([1]; ANIT model rats, oral AE-PM): 2,548.17%; Increase of Cmax compared with the normal group ([1]; ANIT model rats, oral AE-PM): 560.12%; Increase of AUC (0-∞) compared with the normal group ([1]; CCl4 model rats, oral AE-PM): 802.14%; Increase of Cmax compared with the normal group ([1]; CCl4 model rats, oral AE-PM): 236.59%; half-life [1, 6]: 168 ± 52.7 min; Conversion into phase II metabolites ([1]; oral AE-PM): partially converted
